The values that follow come from paper PMC10329798 (Virology Journal, 2023).

In data set [1] the target is T1, SARS-CoV-2 E protein (2-E) (Severe acute respiratory syndrome coronavirus 2, UniProt P0DTC4). As to the kind of experiment: cell-based. The data set is classed as biochemical.
In data set [2] the target is T1, SARS-CoV-2 E protein (2-E). Put plainly: cell-based.
In another data set the test system is SARS-CoV E protein (1-E). The conditions noted are these: 1-E protein, cell viability assay; read-out: IC50, inhibition data from published 1-E protein; cited from earlier work.
In another data set the test system is SARS-CoV-2. The conditions noted are these: in vitro, Vero-h/SLAM cells; cited from earlier work.
Setting [3] is: read-out: IC50, cell viability assay, 2-E protein.
[4] abbreviates: read-out: IC50, patch-clamp electrophysiology, 2-E.

Read-outs that look alike come from different tables or passages of the source.

T1 sequence (P0DTC4 whole entry): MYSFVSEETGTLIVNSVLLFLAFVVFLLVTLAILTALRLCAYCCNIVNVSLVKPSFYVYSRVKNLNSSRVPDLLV

As a reminder, the IC50 is the midpoint of a concentration-inhibition curve. Consider `CC1=C[C@H]2C(=O)O[C@H]3C[C@@H](C/C=C(\C)C[C@@H](C)/C=C/C=C4\CO[C@H]([C@@H]1O)[C@@]42O)O[C@@]1(CC[C@H](C)[C@@H](C)O1)C3` [milbemycin], for which, in data set [1], the midpoint of inhibition, the IC50, lay at 2.21 ± 0.65 nM. Further, in the data set with HEK293 cells (human), the “Concentration with cytotoxic effects / onset of cell toxicity” value is given as ~ 10 µM.

`NC12CC3CC(CC(C3)C1)C2` [amantadine]: the half-inhibitory concentration (IC50) in data set [2] (setting [3]) is 89000 ± 27000 nM; with SARS-CoV E protein (1-E), 77000 ± 13000 nM; in data set [1] (setting [4]) it was 24.1 ± 6.5 nM. Besides, the “Concentration with cytotoxic effects / onset of cell toxicity” value in the data set with HEK293 cells is reported as “not cytotoxic”.

For the compound `CC(N)C12CC3CC(CC(C3)C1)C2` (stereo not drawn) [rimantadine], the half-maximal inhibitory concentration (IC50) in data set [2] is 8900 ± 2200 nM; in the data set with SARS-CoV E protein (1-E), 10900 ± 3300 nM; in data set [1] it was 3.6 ± 0.6 nM. The “Concentration with cytotoxic effects / onset of cell toxicity” value with HEK293 cells is “not cytotoxic”.

For ivermectin, in data set [2], the “Inhibition of the 2-E protein in the cell viability assay” value is reported as “showed inhibiting effects”. Also, the “Reduction in SARS-CoV-2 viral RNA” value in the data set on SARS-CoV-2 is 5000 fold. The IC50 in data set [1] (setting [4]) is 0.88 ± 0.1 nM.

With `CCC(C)C1OC2(CCC1C)CC1CC(CC=C(C)C(O)C(C)C=CC=C3COC4C(O)C(C)=CC(C(=O)O1)C34O)O2` (stereo not drawn) [ivermectin aglycon], in data set [1] (setting [4]), the IC50 was determined as 5 ± 1.3 nM.

`CC1=C[C@H]2C(=O)O[C@H]3C[C@@H](C/C=C(\C)C[C@@H](C)/C=C/C=C4\CO[C@H]([C@@H]1O)[C@@]42O)O[C@]1(C3)C[C@H](O)[C@H](C)[C@@H](/C(C)=C/C(C)C)O1` [nemadectin]: the “IC50, patch-clamp electrophysiology, 2-E” value in data set [1] is “not active”. Further, the “Inhibition of 2-E protein-mediated currents” value in data set [1] (any of the tested concentrations) is reported as “did not observe inhibition”. Also, the “Concentration with cytotoxic effects / onset of cell toxicity” value in the data set with HEK293 cells (human) came out at 2 µM.

With `NC(N)=NC(=O)c1nc(Cl)c(N2CCCCCC2)nc1N` [HMA, 5-(N,N-hexamethylene)amiloride], the half-maximal inhibitory concentration (IC50) in data set [2] (setting [3]) is 1500 ± 300 nM; in the data set on SARS-CoV E protein (1-E) it was 2600 ± 400 nM; in data set [1] (setting [4]), 1.9 ± 0.3 nM. Further, the “Concentration with cytotoxic effects / onset of cell toxicity” value in the data set on HEK293 cells was above 10 µM.
